The molecules below were run against T1, aryl hydrocarbon receptor (AHR) (Homo sapiens, UniProt P35869) (assay: DRE-Luciferase reporter high-throughput screen (AHR antagonist, VAF347-activated)).
T1 sequence (P35869 11-848): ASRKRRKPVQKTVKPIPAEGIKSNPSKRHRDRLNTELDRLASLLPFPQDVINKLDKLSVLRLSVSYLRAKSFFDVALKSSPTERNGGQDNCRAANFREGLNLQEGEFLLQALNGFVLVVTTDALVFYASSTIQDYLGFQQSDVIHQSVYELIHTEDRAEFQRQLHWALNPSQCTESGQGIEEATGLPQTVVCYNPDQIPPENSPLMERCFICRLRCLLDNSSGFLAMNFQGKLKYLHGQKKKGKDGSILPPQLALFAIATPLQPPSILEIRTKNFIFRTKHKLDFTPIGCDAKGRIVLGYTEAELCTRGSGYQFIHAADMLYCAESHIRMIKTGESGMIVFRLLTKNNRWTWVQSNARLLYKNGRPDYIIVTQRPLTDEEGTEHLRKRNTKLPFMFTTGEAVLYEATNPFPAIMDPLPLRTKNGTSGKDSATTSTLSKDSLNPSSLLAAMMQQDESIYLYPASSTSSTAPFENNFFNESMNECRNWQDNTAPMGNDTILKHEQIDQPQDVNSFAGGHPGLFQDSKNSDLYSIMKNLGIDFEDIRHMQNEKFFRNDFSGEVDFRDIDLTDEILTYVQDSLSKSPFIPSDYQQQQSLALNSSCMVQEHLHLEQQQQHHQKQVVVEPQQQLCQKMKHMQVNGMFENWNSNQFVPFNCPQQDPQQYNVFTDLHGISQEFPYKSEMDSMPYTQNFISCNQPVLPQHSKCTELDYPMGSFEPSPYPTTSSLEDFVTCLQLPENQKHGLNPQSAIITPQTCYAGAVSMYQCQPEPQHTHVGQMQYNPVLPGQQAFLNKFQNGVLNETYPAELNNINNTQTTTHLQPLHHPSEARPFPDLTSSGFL
`Cn1c(CCC(=O)OCC(=O)N2c3ccccc3CCc3ccccc32)nc2ccccc2c1=O` [127B] showed an IC50 of over 2 µM. Work on `Cc1ccc(NC(=O)c2cc3ccccc3n(C)c2=O)cc1` [29B] yielded an IC50 of 1 to 2 µM. `Cc1cccc(CSc2nncc3ccccc23)c1` [95B] was tested, and the IC50 was 0.5 to 1 µM. `Cc1nc(-c2ccccc2F)sc1C(=O)NCc1ccccn1` [63A] showed an IC50 of over 2 µM. `O=C(c1csc(-c2ccc(Cl)cc2)c1)N1CCCCC1` [148A] showed an IC50 of 1 to 2 µM. Work on `COc1cc(OC)c(NC(=O)c2[nH]nc3c2CSc2ccccc2-3)cc1Cl` [compound 34] yielded an IC50 of 0.2 to 0.5 µM. In the case of `CCn1cc(C(=O)Nc2ccc(Br)cn2)cn1` [33A], the IC50 is reported as over 2 µM. `Cc1cc2ccccc2n2c(SCC(=O)Nc3ccccc3F)nnc12` [187A] was tested, and the IC50 was over 2 µM. `N#Cc1ccccc1OCc1ccc(C(N)=O)cc1` [142A] was tested, and the IC50 was over 2 µM. For `CNC(=O)N(C)C(=O)c1cnc2onc(-c3ccc(C)cc3)c2c1` [173A], the IC50 was 1 to 2 µM. For `O=C(Nc1ccc(OC(F)F)c(Cl)c1)c1cccc(Cl)c1` [5B], the IC50 was 0.5 to 1 µM. `Cc1ccc(-c2cc(C(=O)NCc3cccnc3)c3cc(Br)ccc3n2)cc1` [155A] gave an IC50 of 1 to 2 µM. With `N#Cc1ccc(-c2csc(-c3ccsc3)n2)cc1` [33B] the IC50 was 0.2 to 0.5 µM. Work on `CC(NC(=O)c1c(N)n(C)c2ccccc2c1=O)c1ccccc1` (stereo not shown) [165A] yielded an IC50 of over 2 µM. Molecule `COc1ccc(C(=O)Nc2cc(C)cc(C)n2)cc1` [9B] has an IC50 of 1 to 2 µM. With `CN(CC(=O)NC(=O)Nc1ccccc1)Cc1ccc(Cl)s1` [compound 153] the IC50 was 0.5 to 1 µM. `CC(C)(C)c1cc(C(=O)Nc2ccc3c(c2)CCN3S(C)(=O)=O)nc2ncnn12` [compound 48] gave an IC50 of under 0.2 µM. Molecule `O=[N+]([O-])c1cc(C(F)(F)F)ccc1Oc1ccc(-c2noc(-c3ccccc3F)n2)cc1` [compound 157] has an IC50 of 0.5 to 1 µM. `O=C(CNC1=NS(=O)(=O)c2ccccc21)OCc1cn(-c2ccccc2)nc1-c1ccccc1` [58B] gave an IC50 of over 2 µM. For `CCn1c2ccccc2c2nnc(-n3nc(C)cc3C)nc21` [122B], the IC50 was 1 to 2 µM. Molecule `Cc1c(-c2cc(NC(=O)C3CC3)[nH]n2)sc2ccc(Cl)cc12` [105A] has an IC50 of over 2 µM. Molecule `CCN(CC)c1ccc(NC(=O)c2cccnc2O)cc1` [12A] has an IC50 of 1 to 2 µM. Work on `Ic1ccc(-c2cnc(-c3ccncc3)o2)cc1` [76B] yielded an IC50 of 0.2 to 0.5 µM. Molecule `O=C(Nc1ccc(OC(F)(F)F)cc1)c1ccc(F)cc1` [6A] has an IC50 of 1 to 2 µM. Molecule `O=C(Nc1cccnc1N1CCN(c2ncc(C(F)(F)F)cc2Cl)CC1)c1ccc(F)cc1` [81A] has an IC50 of 1 to 2 µM. Work on `COc1cccc(-c2nn3c(-c4ccccn4)nnc3s2)c1` [98A] yielded an IC50 of 1 to 2 µM. `Cn1ccc(NC(=O)c2cc(-c3cccc(Cl)c3)[nH]n2)n1` [31A] gave an IC50 of over 2 µM. `COc1ccc(OCc2nc(-c3cccc(F)c3)cs2)cc1` [34B] gave an IC50 of 1 to 2 µM. `CCSc1ccc(-c2ccc(-n3cccn3)cc2)nn1` [91B] gave an IC50 of 1 to 2 µM. Work on `COc1ccc2cc(C)c3nn(CCNC(=O)c4sc(C)nc4C)c(=O)n3c2c1` [191A] yielded an IC50 of over 2 µM. `CCCNC(=O)c1cc2sc(Cl)cc2n1C` [180A] showed an IC50 of over 2 µM. For `CC1CN=C(N2CCN(c3nc4c(cc3C#N)CCC4)CC2)S1` (stereo not shown) [76A], the IC50 was 1 to 2 µM. `CN1CCN(c2nc(-c3cc(F)ccc3F)cs2)CC1` [56A] showed an IC50 of over 2 µM. `O=C(Nc1ccc(-c2cnco2)cc1)c1ccc(F)cc1F` [3B] showed an IC50 of 0.2 to 0.5 µM. In the case of `O=C(Nc1ccc(C(F)(F)F)oc1=O)c1ccc(Cl)cc1` [17B], the IC50 is reported as 0.5 to 1 µM. `c1ccc(-c2ccc(OCc3cn4ccsc4n3)cc2)cc1` [96A] showed an IC50 of 1 to 2 µM. `O=C(Nc1ccc2[nH]c(-c3ccc(Br)o3)nc2c1)c1ccc([N+](=O)[O-])cc1` [41A] showed an IC50 of over 2 µM. For `COc1ccc(C(=O)Nc2cccc(F)c2)cc1C` [1B], the IC50 was 1 to 2 µM. `Cc1ccc(C(=O)Nc2ccc(Br)c(C)n2)c(Cl)c1` [8B] gave an IC50 of 0.5 to 1 µM. For `c1ccc(-c2nc(COc3cccc(-n4cnnn4)c3)cs2)cc1` [54A], the IC50 was 1 to 2 µM. In the case of `Cc1ccc2nc(C3=C(N)N(CC(C)C)CC3=O)[nH]c2c1` [113A], the IC50 is reported as 1 to 2 µM. In the case of `Cc1nc2nc(SCc3ccc(Cl)cc3)nn2c(C)c1Cl` [74B], the IC50 is reported as 1 to 2 µM. `Clc1ccc(-c2ncc(-c3cc[nH]n3)s2)cc1` [compound 64] was tested, and the IC50 was 0.5 to 1 µM. `Cc1ccc2nc3c(c(N)c2c1)CCN3c1ccccc1` [124B] showed an IC50 of 0.5 to 1 µM. Work on `O=C(Cc1ccccc1)Nc1ccc2nc(C(F)(F)F)[nH]c2c1` [111A] yielded an IC50 of 1 to 2 µM. `COc1ccccc1N(C(=O)c1ccc(O)nc1)c1nc(-c2ccc([N+](=O)[O-])cc2)cs1` [compound 56] gave an IC50 of 0.2 to 0.5 µM. `CCOC(=O)N1CCN(c2nc(Nc3ccc(C)cc3C)c3nccnc3n2)CC1` [82A] gave an IC50 of 1 to 2 µM. In the case of `CSc1nc2cc(-c3ccc(Cl)cc3)nn2c(N)c1C#N` [69B], the IC50 is reported as under 0.2 µM. `O=C(Nc1nc(-c2ccc(F)cc2)n[nH]1)c1cc(F)cc(F)c1` [14B] showed an IC50 of 0.5 to 1 µM. In the case of `O=C1CSC(N2CCN(c3ccc(Cl)c(Cl)c3)CC2)=N1` [71A], the IC50 is reported as over 2 µM. `CCOC(=O)c1c(C)[nH]c(-c2cn3ccccc3n2)c1C` [compound 102] showed an IC50 of 0.2 to 0.5 µM. For `N#Cc1ccccc1COc1ccc(-n2cnnn2)cc1` [compound 154], the IC50 was 0.5 to 1 µM. Molecule `CC(C)NC(=O)c1ccc2c(-c3nccs3)noc2c1` [65A] has an IC50 of 1 to 2 µM. Molecule `N#Cc1c(N)nc2c(oc3ccccc32)c1-c1ccccc1` [123B] has an IC50 of 1 to 2 µM. `O=C(COC(=O)c1cn2ccccc2n1)Nc1ccc(Cl)cc1Cl` [117A] gave an IC50 of over 2 µM. `Cn1c(N)c(-c2csc(-c3cccc(Cl)c3)n2)c(=O)n(C)c1=O` [36B] showed an IC50 of 1 to 2 µM. `O=C(Cc1cccc(F)c1)Nc1ccc(-c2nccs2)cc1` [compound 62] gave an IC50 of 0.5 to 1 µM. `CC(=O)N1CC=C(c2ccc(OCc3ccc(C#N)cc3)cc2)CC1` [compound 143] gave an IC50 of 0.2 to 0.5 µM. In the case of `Cc1csc(-c2ccc(NC(=O)NCc3cc(C)on3)cc2)n1` [62A], the IC50 is reported as over 2 µM. For `Cc1cc(C)c(C#N)c(SCc2cc(-c3cccs3)on2)n1` [79B], the IC50 was 1 to 2 µM. In the case of `O=C(c1csc(-c2ccsc2)n1)N1CCCc2cc(C(F)(F)F)ccc21` [37B], the IC50 is reported as 0.2 to 0.5 µM. With `COc1cccc(-c2cc(C(F)(F)F)nc(-n3cc(Cl)cn3)n2)c1` [86A] the IC50 was 1 to 2 µM. In the case of `COc1ccc2[nH]c(C(=O)Nc3ccc(Br)c(C)n3)cc2c1` [25B], the IC50 is reported as 0.2 to 0.5 µM. `COc1ccc(N2CCN(c3cc(C)nn4cnnc34)CC2)cc1` [74A] was tested, and the IC50 was over 2 µM. Molecule `CCn1c(-c2csc(N(C(C)=O)c3ccccc3)n2)nc2ccccc21` [39B] has an IC50 of 1 to 2 µM. Work on `Brc1ccc(-c2ccc(NC3CCCC3)nn2)cc1` [49B] yielded an IC50 of 1 to 2 µM. Molecule `C=C(Cc1nnc(C(C)C)s1)c1cn(CCOC)cc2c(=O)n(-c3ccccc3)nc1-2` [175A] has an IC50 of over 2 µM. `Cc1ccc(N2CCN(C(=O)Nc3cc(F)cc(F)c3)CC2)nn1` [78A] was tested, and the IC50 was 1 to 2 µM. In the case of `CC(=O)c1ccc(C(=O)Nc2ccc(C)cc2Cl)s1` [21A], the IC50 is reported as 1 to 2 µM. In the case of `CN(C)c1cccc(-c2nnc(-c3ccc(C(F)(F)F)cc3)[nH]2)c1` [compound 97], the IC50 is reported as 0.2 to 0.5 µM. `COc1ccc(N2CCN(c3nc(C(F)(F)F)cs3)CC2)cc1` [compound 111] showed an IC50 of 0.5 to 1 µM. `c1ccc(-c2nc(-c3ccc4c(c3)CCO4)no2)cc1` [85B] showed an IC50 of 0.5 to 1 µM. `CC(=O)Nc1cn(-c2ccccc2)nc1-c1ccc(Cl)s1` [55B] gave an IC50 of 0.5 to 1 µM. With `Cc1nn2c(-c3cccc(NC(=O)CN4CCCCC4)c3)nnc2c2ccccc12` [119B] the IC50 was 0.2 to 0.5 µM. In the case of `COc1ccc(Nc2oc(-c3ccccc3C)nc2C#N)cc1` [78B], the IC50 is reported as 0.5 to 1 µM. Work on `Cc1csc(Nc2nc(N)c(C(=O)Nc3cc(Cl)ccc3F)o2)n1` [compound 37] yielded an IC50 of 0.5 to 1 µM. With `Cc1nn(-c2ccccc2)c(N)c1-c1nc(-c2ccc(Cl)cc2)cs1` [59A] the IC50 was over 2 µM. In the case of `CC(C)CCNC(=O)c1[nH]nc2c1COc1ccccc1-2` [183A], the IC50 is reported as over 2 µM. Molecule `Cc1cc(C)n(-c2ccc(NC(=O)c3ccc(OC(F)F)cc3)cc2F)n1` [9A] has an IC50 of over 2 µM. Molecule `O=C(NCCc1ccccc1)c1cnc(-c2noc3ccccc23)s1` [60A] has an IC50 of over 2 µM. Molecule `Clc1ccc(-c2nc3cc(Br)cnc3[nH]2)cc1` [72B] has an IC50 of under 0.2 µM. `Clc1ccc(-c2noc(-c3c[nH]nc3-c3ccccc3)n2)cc1` [86B] gave an IC50 of over 2 µM. Work on `Cc1noc(C)c1C(=O)Nc1ccc(-c2ccccc2)cc1` [13B] yielded an IC50 of 0.5 to 1 µM. With `N#Cc1ccc(OCc2ncc(C(F)(F)F)cc2Cl)cc1` [93A] the IC50 was 1 to 2 µM. `Cc1cc(NC(=O)c2nnn(-c3ccccc3)c2C)no1` [19B] showed an IC50 of over 2 µM. `O=C(Cn1cnnn1)N(CCc1ccccc1)c1nc(-c2ccccc2)cs1` [41B] showed an IC50 of 1 to 2 µM. Molecule `COc1ccc(Cl)cc1C(=O)Nc1ccc(NC(=O)c2cccc(S(C)(=O)=O)c2)c(Cl)c1` [10B] has an IC50 of 0.2 to 0.5 µM. For `O=C(Nc1cccc(Cl)c1)c1ccc(-n2cccn2)c([N+](=O)[O-])c1` [4A], the IC50 was 1 to 2 µM. For `CCc1cccc2c(C(=O)CSc3nnnn3C)c[nH]c12` [63B], the IC50 was 1 to 2 µM. `Clc1ccc2nnn(OCc3cn4cc(Cl)ccc4n3)c2c1` [116A] showed an IC50 of over 2 µM. `CC(=O)c1sc(-c2ccc(Oc3ncnc4sccc34)cc2)nc1C` [64A] gave an IC50 of 1 to 2 µM. Work on `C#CCOc1ccc(C(=O)Nc2cccc(OC)c2)cc1` [1A] yielded an IC50 of over 2 µM. In the case of `CCN(CC)c1ncnc2sc(-c3ccccc3)cc12` [170A], the IC50 is reported as 1 to 2 µM. In the case of `C#CCn1cnc2c(nnn2-c2ccc(C)c(Cl)c2)c1=O` [178A], the IC50 is reported as over 2 µM.
